Read-outs that look alike come from different tables or passages of the source.
Key:
[1] = parameters: method as in ref 3 (usnic acid), 46 (caffeic acid), 47 (uric acid), 48 (tannic acid), 49 (caffeic acid phenethyl ester); concentration or dose not given beside the values; conditions: at similar concentrations; ref 3 (usnic acid), 46 (caffeic acid), 47 (uric acid), 48 (tannic acid), 49 (caffeic acid phenethyl ester); cited from earlier work
[2] = molecular target: T1, acetylcholinesterase (AChE) (Electrophorus electricus, UniProt O42275); conditions: literature values, cited from earlier work
T1 sequence (O42275 24-633): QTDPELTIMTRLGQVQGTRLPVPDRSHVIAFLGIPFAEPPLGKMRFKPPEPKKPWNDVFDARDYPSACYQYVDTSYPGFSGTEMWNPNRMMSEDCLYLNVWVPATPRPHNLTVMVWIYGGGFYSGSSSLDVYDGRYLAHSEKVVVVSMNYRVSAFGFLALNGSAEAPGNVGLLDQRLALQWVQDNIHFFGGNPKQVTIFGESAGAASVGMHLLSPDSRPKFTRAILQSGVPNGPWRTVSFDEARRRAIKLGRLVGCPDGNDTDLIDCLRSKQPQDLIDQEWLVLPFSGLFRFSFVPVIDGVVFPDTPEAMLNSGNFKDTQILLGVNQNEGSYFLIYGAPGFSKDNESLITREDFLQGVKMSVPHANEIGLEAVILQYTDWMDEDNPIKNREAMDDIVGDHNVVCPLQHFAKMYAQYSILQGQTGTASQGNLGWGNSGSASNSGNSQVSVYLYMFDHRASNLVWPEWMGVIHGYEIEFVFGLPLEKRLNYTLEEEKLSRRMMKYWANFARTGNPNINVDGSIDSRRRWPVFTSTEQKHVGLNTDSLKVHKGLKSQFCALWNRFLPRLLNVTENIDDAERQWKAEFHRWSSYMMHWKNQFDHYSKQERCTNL

[3] = parameters: concentration or dose not given beside the values; conditions: at similar concentrations; ref 3 (usnic acid), 50 (eugenol), 51 (resveratrol), 52 (taxifolin), 53 (olivetol); cited from earlier work
[4] = DPPH^•-scavenging activity (Blois method)
From the text: Radical-scavenging assays are often used for screening the antioxidant properties of pure or novel synthesized compounds. For this purpose, the most commonly and widely used radical scavenging method is the DPPH radical-scavenging assay.

[5] = molecular target: butyrylcholinesterase (BChE) (Equus caballus, UniProt P81908); assay: biochemical
butyrylcholinesterase (BChE), sequence (P81908 whole entry): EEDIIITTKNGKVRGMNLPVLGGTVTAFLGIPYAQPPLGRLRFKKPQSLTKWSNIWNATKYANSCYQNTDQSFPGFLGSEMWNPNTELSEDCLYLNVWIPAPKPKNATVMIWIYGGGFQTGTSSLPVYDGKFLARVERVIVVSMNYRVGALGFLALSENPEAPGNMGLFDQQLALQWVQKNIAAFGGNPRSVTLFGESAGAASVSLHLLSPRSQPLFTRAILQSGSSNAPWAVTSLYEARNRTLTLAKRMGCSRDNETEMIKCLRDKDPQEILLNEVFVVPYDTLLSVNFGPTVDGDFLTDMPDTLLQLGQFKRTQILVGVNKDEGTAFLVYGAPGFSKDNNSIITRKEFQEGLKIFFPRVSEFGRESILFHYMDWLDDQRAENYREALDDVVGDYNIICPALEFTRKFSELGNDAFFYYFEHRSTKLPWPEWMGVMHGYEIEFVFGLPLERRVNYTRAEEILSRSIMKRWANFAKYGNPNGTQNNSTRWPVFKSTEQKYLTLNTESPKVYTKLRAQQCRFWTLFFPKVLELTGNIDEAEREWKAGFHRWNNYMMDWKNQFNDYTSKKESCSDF

[6] = molecular target: α-glycosidase; assay: α-Glycosidase inhibition (p-NPG substrate); format: biochemical; conditions: read-out: IC50 (nM) α-Gly
Method: The absorbances of samples were measured at 405 nm. One α-glycosidase unit was the enzyme quantity, which catalyzes […] of substrate per minute (pH 7.4).
Lineweaver–Burk graphs were used for the determination of Ki values and other inhibition parameters.

[7] = molecular target: T1, acetylcholinesterase (AChE); assay: biochemical
[8] = ABTS^•+-scavenging activity
From the text: A ABTS^•+-scavenging assay measured the ability of pure compounds to decrease the color, reacting directly with the ABTS radical.

[9] = molecular target: T2, carbonic anhydrase II isoenzyme (hCA II) (Homo sapiens, UniProt P00918); assay: CA II inhibition (esterase activity); format: biochemical
T2 construct: Human erythrocytes were used as the CA II isoenzyme source; from tissue; host or cells: human erythrocytes
Method: Human erythrocytes were used as the CA II isoenzyme source. Fresh human erythrocytes were centrifuged at 10,000× g for 30 min. Then, they were precipitated and the serum was separated and adjusted with solid Tris to pH 8.7 [99]. The CA II isoenzyme was purified using Sepharose-4B-L-Tirozyne-sulfanylamide affinity column chromatography [100]. […] During the purification and inhibition process of hCA II, esterase activity was examined.

[10] = DMPD^•+-scavenging activity
From the text: In this study, DMPD radicals were generated in situ by oxidation with ferric chloride. […] (as a biologically active and bright yellow chemical produced by Curcuma longa species).

[11] = ref 53 (olivetol), 59 (taxifolin)

Compound | absorbance values for Fe^3+-reducing activity [1] | absorbance values for Cu^2+-reducing activity [3] | DPPH^• Scavenging IC50 [4] [µg/mL] | ABTS^•+ Scavenging IC50 [8] [µg/mL] | DMPD^•+ Scavenging IC50 [10] [µg/mL] | also measured
O=C(/C=C/c1ccc(O)c(O)c1)OCCc1ccccc1 [CAPE, caffeic acid phenethyl ester] | 2.509 |  |  |  |  | 
tannic acid | 2.428 |  |  |  |  | 
CCCCCc1cc(O)cc(O)c1 [olivetol] |  | 1.314 |  |  |  | Ki for AChE [2, 11]: 5.13 µg/mL
O=c1oc2cc(O)ccc2c2oc3cc(O)ccc3c12 [Coumestrol, 3,9-dihydroxy-6-benzofuran [3,2-c] chromenone] |  |  | 25.95 | 12.24 | 12.81 | IC50 [5]: 18.2 nM; Ki ([5]; Lineweaver–Burk): 21.7 ± 2.23 nM; IC50 [6]: 27.5 nM; IC50 [7]: 21.1 nM; IC50 [9]: 44 nM; Ki [9]: 23.8 ± 2.17 nM
O=C(O)/C=C/c1ccc(O)c(O)c1 [caffeic acid] | 2.769 |  |  |  |  | 
CC(=O)c1c(O)c(C)c(O)c2c1OC1=CC(=O)C(C(C)=O)C(=O)C12C (stereo not drawn) [usnic acid] | 0.278 | 0.277 |  |  |  | Ki ([2]; ref 3 (usnic acid), 58 (CAPE)): 3.39 nM
Cc1c(C)c2c(c(C)c1O)CCC(C)(C(=O)O)O2 (stereo not drawn) [Trolox] |  |  | 7.059 | 6.16 | 4.33 | 
Cc1c(C)c2c(c(C)c1O)CC[C@@](C)(CCC[C@H](C)CCC[C@H](C)CCCC(C)C)O2 [α-Tocopherol] |  |  | 11.31 | 8.37 | 7.11 | 
C=CCc1ccc(O)c(OC)c1 [eugenol] |  | 0.762 |  |  |  | 
Cc1cc(C(C)(C)C)c(O)c(C(C)(C)C)c1 [BHT, butylated hydroxytoluene] |  |  | 25.95 | 6.99 | 8.72 | 
O=c1[nH]c(=O)c2[nH]c(=O)[nH]c2[nH]1 [uric acid] | 0.432 |  |  |  |  | 
COc1ccc(O)c(C(C)(C)C)c1 [BHA, Butylated hydroxyanisole] |  |  | 10.10 | 5.07 | 11.99 | 
O=C1c2c(O)cc(O)cc2OC(c2ccc(O)c(O)c2)C1O (stereo not drawn) [taxifolin] |  | 0.750 |  |  |  | Ki [2, 11]: 54900 nM
